“Also recorded” adds a separate entry of the source. Structures can show the parent of a compound that is named as a salt.

The subject of one data set is animals. Kind of data set: precipitated withdrawal jumping in animals. It counts as in vivo. The settings on record: compared with naloxone.
For data set [1], the target named is T1, mouse DOR (Mus musculus, UniProt P32300). Description: basal [35S]GTPγS binding in DOR cell membranes with or without agonist pretreatment. The format is biochemical. Set-up: expressed in transfected cells; membranes.
T1 sequence (P32300 whole entry): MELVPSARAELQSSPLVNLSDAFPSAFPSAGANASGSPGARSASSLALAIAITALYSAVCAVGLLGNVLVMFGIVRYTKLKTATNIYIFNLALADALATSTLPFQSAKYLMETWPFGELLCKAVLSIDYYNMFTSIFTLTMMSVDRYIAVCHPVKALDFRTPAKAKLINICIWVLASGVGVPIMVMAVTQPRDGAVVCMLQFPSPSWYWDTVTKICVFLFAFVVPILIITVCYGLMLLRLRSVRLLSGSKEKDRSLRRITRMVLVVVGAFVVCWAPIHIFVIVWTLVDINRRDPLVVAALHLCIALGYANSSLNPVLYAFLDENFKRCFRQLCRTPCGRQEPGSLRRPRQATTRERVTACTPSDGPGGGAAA
The target of data set [2] is T1, mouse DOR.
The target in data set [3] is T2, human MOR (Homo sapiens, UniProt P35372). The format is biochemical. Set-up: expressed in transfected cells; membranes.
T2 sequence (P35372 whole entry): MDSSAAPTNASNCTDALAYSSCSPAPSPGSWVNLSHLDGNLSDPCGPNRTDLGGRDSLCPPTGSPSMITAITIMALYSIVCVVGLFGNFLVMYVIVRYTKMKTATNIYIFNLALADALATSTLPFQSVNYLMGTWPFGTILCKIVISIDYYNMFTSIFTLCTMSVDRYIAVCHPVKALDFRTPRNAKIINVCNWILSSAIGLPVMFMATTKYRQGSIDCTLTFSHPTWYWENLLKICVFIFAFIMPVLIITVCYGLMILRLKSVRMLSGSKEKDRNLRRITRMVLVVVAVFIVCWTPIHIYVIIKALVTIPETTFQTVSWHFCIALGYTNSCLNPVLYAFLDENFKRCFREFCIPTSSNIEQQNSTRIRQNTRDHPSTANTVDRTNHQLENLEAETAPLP
Data set [4] addresses T2, human MOR.
The next data set has as its target T3, human KOR (Homo sapiens, UniProt P41145).
T3 construct: expressed in transfected cells; membranes
Description: biochemical. The settings on record: for Emax: read-out: Emax of decrease of basal GTPγS binding. On the technique in general: Binding of GTPγS marks nucleotide exchange on a G protein.

T3 sequence (P41145 whole entry): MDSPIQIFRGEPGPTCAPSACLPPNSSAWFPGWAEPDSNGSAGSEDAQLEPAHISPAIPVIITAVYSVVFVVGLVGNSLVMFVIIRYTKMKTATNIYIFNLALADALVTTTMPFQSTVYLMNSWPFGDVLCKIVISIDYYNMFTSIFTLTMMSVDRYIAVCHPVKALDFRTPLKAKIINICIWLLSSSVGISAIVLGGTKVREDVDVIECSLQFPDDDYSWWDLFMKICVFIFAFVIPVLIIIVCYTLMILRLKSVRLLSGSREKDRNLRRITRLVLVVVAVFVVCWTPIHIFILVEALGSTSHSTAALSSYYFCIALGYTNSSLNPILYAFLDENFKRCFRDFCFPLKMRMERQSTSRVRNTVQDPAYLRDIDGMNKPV

For `Oc1ccc2c3c1O[C@H]1[C@H](O)CC[C@@]4(O)[C@@H](C2)N(CC2CC2)CC[C@]314` [6β-naltrexol], in the data set on animals, the precipitated withdrawal jumping entry is on record as “less withdrawal jumping than naloxone”. The “inhibition of the inverse agonist effect of naloxone” value at mouse DOR [1] (DPDPE-pretreated DOR membranes) is given as “inhibited”. The “pharmacological property at DOR” value at mouse DOR [1] (after DPDPE or morphine pretreatment) is on record as “neutral antagonist property; also recorded: remained neutral”. The “antagonistic property against agonist-stimulated [35S]GTPγS binding” value on mouse DOR [2] (30 nM DPDPE, DOR membranes) was “full antagonists”.

On to `O=C1C(=Cc2ccccc2)C[C@@]2(O)[C@H]3Cc4ccc(O)c5c4[C@@]2(CCN3CC2CC2)[C@H]1O5` [BNTX, 7-benzylidenenaltrexone], for which, on human MOR [3], the “change of inverse agonist effects after pretreatment” value (shortened to “change of inverse agonist effects”) was “increased” and the “shift of inverse agonist dose-response curve after pretreatment” value was “shifted the dose-response curve of BNTX to the left”.

With `C[C@@H](NC(=O)[C@@H](N)Cc1ccc(O)cc1)C(=O)NCC(=O)N(C)[C@@H](Cc1ccccc1)C(=O)NCCO` [DAMGO, [D-Ala2,N-Me-Phe4,Gly5-ol]-enkephalin], the “change of agonist Emax value after pretreatment” value on human MOR [4] was “decreased”.

`N=C(N)Nc1ccc2[nH]c3c(c2c1)CC1(O)C2Cc4ccc(O)c5c4C1(CCN2CC1CC1)C3O5` (stereo not drawn) [GNTI, 5′-guanidinyl-17-(cyclopropylmethyl)-6,7-dehydro-4,5α-epoxy-3,14-dihydroxy-6,7-2′3′-indolomorphinan dihydrochloride]: at human KOR, the “EC50 of decrease of basal GTPγS binding” value is given as “femtomolar range”; the “change of inverse agonist effects” value is listed as “increased”; the “pharmacological property at KOR” value was “inverse agonists”; the Emax (in general, the maximal effect, on the per cent scale that the assay sets) is about 10%.

As to `Oc1ccc2c3c1O[C@H]1c4[nH]c5c(c4C[C@@]4(O)[C@@H](C2)N(CC2CC2)CC[C@]314)C[C@@]1(O)[C@H]2Cc3ccc(O)c4c3[C@@]1(CCN2CC1CC1)[C@H]5O4` [nor-BNI, nor-binaltorphimine], on human KOR, the “change of inverse agonist effects” value is “increased”, the “pharmacological property at KOR” value is “inverse agonists” and the Emax is about 10%.

Consider “N,N-diallyl-Tyr-Aib-Aib-Phe-Leu-OH [ICI 174,864]”, for which, at mouse DOR [1] (DPDPE pre-exposure, DOR), the “change of inverse agonist effects” value is “decreased”. Also, on mouse DOR [1] (morphine pretreatment, DOR), the “change of inverse agonist Emax after pretreatment” value is given as “without affecting” and the “shift of inverse agonist dose-response curve after pretreatment” value is reported as “shifted the dose-response curve for ICI 174,864 to the left”.

As to [D-Pen2,D-Pen5]-enkephalin [DPDPE], the “change of agonist Emax value after pretreatment” value at mouse DOR [2] is “decreased”.

The values above are taken from patent US20110195433A1 (priority 2007, published 2011).
